PMC9877316, “Identification of a novel P2X7 antagonist using structure-based virtual screening” (Frontiers in Pharmacology, 2023)
Values after ≈ are worked out from the molar mass of the structure shown.

Assays:
[1] = Solubility observations; format: physicochemical; details: read-out: maximum concentration that could be applied (due to solubility issues)
[2] = target: T1, human P2X7 (Homo sapiens, UniProt Q99572); assay: ATP-induced YoPro-1 dye uptake assay, human P2X7; format: cell-based; details: 300 µM ATP, YoPro-1 uptake
T1 construct: expressed in transfected cells; host or cells: 1321N1 astrocytoma cells (compounds 1-17); HEK-293 cells stably expressing human P2X7 (gift of E. Adinolfi)
T1 sequence (Q99572 1-595): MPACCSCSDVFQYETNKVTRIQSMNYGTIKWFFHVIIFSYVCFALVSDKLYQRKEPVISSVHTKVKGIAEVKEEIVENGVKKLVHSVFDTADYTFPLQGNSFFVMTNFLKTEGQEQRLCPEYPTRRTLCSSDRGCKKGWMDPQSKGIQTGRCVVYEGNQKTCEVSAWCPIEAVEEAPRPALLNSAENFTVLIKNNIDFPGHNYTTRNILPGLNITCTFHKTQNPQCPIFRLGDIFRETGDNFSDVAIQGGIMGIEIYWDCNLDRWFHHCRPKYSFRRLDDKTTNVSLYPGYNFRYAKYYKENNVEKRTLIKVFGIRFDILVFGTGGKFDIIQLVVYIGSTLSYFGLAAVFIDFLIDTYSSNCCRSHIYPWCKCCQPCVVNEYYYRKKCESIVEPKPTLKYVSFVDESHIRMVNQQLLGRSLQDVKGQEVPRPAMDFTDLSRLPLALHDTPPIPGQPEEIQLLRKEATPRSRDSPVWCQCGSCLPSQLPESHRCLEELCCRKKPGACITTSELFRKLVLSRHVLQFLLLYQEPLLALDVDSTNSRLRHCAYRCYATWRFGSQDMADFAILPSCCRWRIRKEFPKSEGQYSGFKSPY
Protocol: 1321N1 astrocytoma cells and HEK-293 cells were cultured (at 37°C, 5% CO2) in Dulbecco’s modified Eagle’s medium (DMEM/F-12 with Glutamax) supplemented with 10% foetal bovine serum (FBS) and 200 unit/ml of penicillin and streptomycin antibiotics (Fisher Scientific). For stable cell line generation, cells were transfected using FuGene HD Transfection Reagent (Promega) according to the manufacturer’s protocol with plasmids encoding either human P2X4 with a C-terminal (His)10 tag ([Young et al., 2008]), human P2X7 with a C-terminal EYMPME tag (kindly provided by R.A. North) or rat P2X7 C-terminally tagged with a GFP-(His)8 tag, generated by PCR amplification of the coding sequence for rat P2X7 from a pcDNA-based expression vector ([Young et al., 2007]), adding XhoI and EcoRI sites at the 5′- and 3′- ends respectively, followed by restriction digestion and ligation into a zebrafish P2X4-GFP expression vector based on pEGFP-C1 (kindly provided by Eric Gouaux; [Kawate and Gouaux, 2006]) to replace the zebrafish P2X4 coding region with rP2X7. Transfected clones were grown in DMEM/F-12 with Glutamax medium supplemented with G-418 (Geneticin®, Fisher Scientific), 600 μg/ml and 150 μg/ml during selection and maintenance respectively. […] HEK-293 cells stably expressing human P2X7 ([Adinolfi et al., 2010]) were a kind gift from Elena Adinolfi.
Cells were plated as for the calcium influx assay (Section 2.4). Culture medium was replaced with low divalent cation containing extracellular solution (ECS-LD; 147 mM NaCl, 10 mM HEPES, 13 mM Glucose, .2 mM CaCl2, 2 mM KCl. pH = 7.4 in MilliQ water) and 5 μM Yopro-1. […] The baseline was measured with a BMG Clariostar instrument for 5–10 cycles, followed by addition of ATP (or BzATP) and recording for at least 30 further cycles (approx. 1 min per data point). The collected responses were normalized to the first data-point recorded after ATP addition. The initial gradient of the dye uptake curve was used to calculate the response to ATP.
The antagonist activity of the 17 compounds (applied at 10 µM) was assayed initially on 1321N1 astrocytoma cells stably expressing human P2X4 receptors by measuring the ATP-induced (applied at 1.2 µM) increase in Fluo-4 fluorescence due to calcium influx via P2X4, using 2 µM BX430 as a positive control (Figure 1A). […] The ATP-induced rate of uptake of YoPro-1 dye was measured upon application of at 300 µM ATP, using .1 µM A740003 as a positive control (Figure 1B).
A small library of 16 commercially available compounds was selected according to the presence of the same scaffold as GP-25, (70% similarity, Tanimoto index) and/or presence of at least one functional group we hypothesized could contribute to GP-25 activity (e.g. carboxylic acid, halogen substituent to the aromatic ring, ester, etc.) (Compounds 18–33; Table 1). […] Although the number of compounds tested was limited by their availability via a commercial source, the numerous ‘hits’ allowed for a basic structure-relationship (SAR) analysis.

COC(=O)C1=C(C)NC2=C(C(=O)c3ccccc32)C1c1cc(Br)ccc1OCC(=O)O (stereo not drawn) [Compound 9, (4-bromo-2-(3-(methoxycarbonyl)-2-methyl-5-oxo-4,5-dihydro-1H-indeno(1,2-b)pyridine-4-yl)phenoxy)acetic acid]
solubility [1]: 100 µM (≈ 48.4 µg/mL) | inhibition at 30 µM ([2]; P2X7, approx. % inhibition at 30 μM compound, 1321N1 (1-17) or HEK (18-33) cells, read-out: % Inhibition at hP2X7): ~75% | IC50 [2]: 8.7 µM
